This is an account of results in ChEMBL document CHEMBL1132067, “Cytotoxic effects of NSL-1406, a new thienopyrimidine derivative, on leukocytes and osteoclasts” (Bioorg Med Chem Lett, 1999).

As usually defined, the IC50 is the midpoint of a concentration-inhibition curve.

Experiment [1] deals with P388. In words: Cytotoxicity against P388 cells is the dose giving 50% decrease in the formation of formazan dye. The following applies: Mus musculus. Type of experiment: functional, cell-based.
Experiment [2] concerns P388. Briefly: Dose giving a 50% decrease in the living cell number (P388 cells). Conditions: Mus musculus, read-out: LD50 (the source's name). Type of experiment: functional.
Experiment [3] concerns J774. In words: Dose giving a 50% decrease in the living cell number (J774 cells). It is filed as functional. Conditions: Mus musculus, read-out: LD50 (the source's name).
The test system of experiment [4] is HL-60. In words: Cytotoxicity against HL-60 cells is the dose giving 50% decrease in the formation of formazan dye. Type of experiment: functional, cell-based. Conditions: Homo sapiens.
The test system of experiment [5] is A-431. Briefly: Dose giving a 50% decrease in the living cell number ([…] cells). Type of experiment: functional. Conditions: Homo sapiens, read-out: LD50 (the source's name).
The subject of experiment [6] is A-431. Briefly: Cytotoxicity against […] cells is the dose giving 50% decrease in the formation of formazan dye. Type of experiment: functional, cell-based. Conditions: Homo sapiens.
Experiment [7] concerns ECV-304. In words: Dose giving a 50% decrease in the living cell number (ECV-304 cells). Type of experiment: functional. Conditions: Homo sapiens, read-out: LD50 (the source's name).
Experiment [8] relates to ECV-304. In words: Cytotoxicity against ECV-304 cells is the dose giving 50% decrease in the formation of formazan dye. The following applies: Homo sapiens. Type of experiment: functional, cell-based.
Experiment [9] has as its system J774. Briefly: Cytotoxicity against J774 cells is the dose giving 50% decrease in the formation of formazan dye. The following applies: Mus musculus. Type of experiment: functional, cell-based.
The test system of experiment [10] is HL-60. In words: Dose giving a 50% decrease in the living cell number (HL-60 cells). Type of experiment: functional. Conditions: Homo sapiens, read-out: LD50 (the source's name).

Regarding `Cc1csc2ncnc(NCCc3ccccc3)c12`, 0.029 µM corresponded to half-maximal inhibition in the experiment on P388 [1] (IC50). For the same compound, the CC50 in the experiment with P388 [2] worked out at 43 µM.

The compound `Cc1csc2ncnc(NCCc3ccc(O)cc3)c12` yielded a half-maximal inhibitory concentration (IC50) in the experiment with P388 [1] of 0.19 µM. Moreover, in the experiment on P388 [2], the CC50 came to 86 µM.

In the experiment with P388 [1], `Clc1ccc(CCNc2ncnc3sccc23)cc1` had an IC50 of 0.035 µM. Further, the CC50 with P388 [2] amounted to 73 µM.

Compound `Cc1csc2ncnc(NCc3ccc(Cl)cc3)c12` showed a concentration for half-maximal inhibition (IC50) with P388 [1] of 0.17 µM. Also, the CC50 in the experiment with P388 [2] turned out to be 74 µM.

Turning to `Cc1csc2ncnc(NCCc3ccc(F)cc3)c12`, the half-maximal inhibitory concentration (IC50) in the experiment with P388 [1] stood at 0.029 µM. For the same compound, the CC50 in the experiment with P388 [2] was 68 µM.

As for `COc1ccc(CCNc2ncnc3scc(C)c23)cc1`, it took 0.0074 µM to reach half-maximal inhibition in the experiment on P388 [1] (IC50). Moreover, in the experiment with P388 [2], the CC50 came out at 46 µM.

`Cc1csc2ncnc(NCCc3ccc(Cl)cc3)c12`: the CC50 with J774 [3] worked out at 43 µM; in the experiment on A-431 [5] it was 51 µM; in the experiment on ECV-304 [7], 53 µM; with HL-60 [10], 67 µM; in the experiment on P388 [2] it was 35 µM. The IC50 in the experiment with HL-60 [4] stood at 0.0085 µM; in the experiment with P388 [1], 0.0052 µM; in the experiment on A-431 [6], 20 µM; in the experiment on ECV-304 [8] it was 34 µM; in the experiment with J774 [9], 0.005 µM.

As to `Clc1ccc(CCNc2ncnc3ccsc23)cc1`, the half-maximal inhibitory concentration (IC50) with P388 [1] worked out at 0.029 µM. For the same compound, the CC50 with P388 [2] was found to be 41 µM.

In turn, `Clc1ccc(CCNc2[nH]cnc3ncnc2-3)cc1` had a concentration for half-maximal inhibition (IC50) in the experiment with P388 [1] of 7.3 µM. Further, in the experiment on P388 [2], the CC50 worked out at 96 µM.

With `Cc1csc2ncnc(NCCC(=O)O)c12`, half-maximal inhibition in the experiment with P388 [1] (IC50) was put at 12 µM. Also, the CC50 in the experiment on P388 [2] was determined as 250 µM.

Compound `Cc1csc2ncnc(NCCc3ccc(Br)cc3)c12` registered a concentration for half-maximal inhibition (IC50) with P388 [1] of 0.0011 µM. Besides, the CC50 in the experiment on P388 [2] turned out to be 58 µM.

In the experiment with P388 [1], `Cc1csc2ncnc(Cl)c12` gave an IC50 of 33 µM. In the experiment on P388 [2], the CC50 worked out at 490 µM.

In the experiment with P388 [1], `CCCNc1ncnc2scc(C)c12` returned an IC50 of 5.5 µM. Moreover, the CC50 in the experiment with P388 [2] came out at 85 µM.

Compound `Cc1csc2ncnc(NCCCc3ccc(Cl)cc3)c12` displayed a 50% inhibitory concentration (IC50) with P388 [1] of 1.3 µM. In the experiment with P388 [2], the CC50 turned out to be 98 µM.

Take `Cc1csc2ncnc(NCCc3ccc(N)cc3)c12`: the concentration for half-maximal inhibition (IC50) in the experiment on P388 [1] came to 0.022 µM. Besides, the CC50 in the experiment on P388 [2] worked out at 39 µM.
